{"source": "patent US20260345582A1", "about": "“PRODRUG FOR ANTI-AGING RELATED DISEASES AND USE METHOD THEREOF” (Beijing SunCell Bio-Medical Co., Ltd., priority 2022, published 2026)", "key": {"[1]": {"system": "HELF cells (primary human embryonic lung fibroblast)", "experiment": "in vitro killing of induced senescent HELF cells (CCK-8)", "type": "cell-based", "conditions": "lung-derived, FIG. 3C", "excerpt": "Induction of the Cellular Senescence"}, "[2]": {"experiment": "plasma metabolic stability, monkey", "type": "in vitro ADME", "conditions": "120 min", "method": "(§1) Plasma Metabolic Stability\n(§2) Termination of the reaction was accomplished by the addition of 3× volume of acetonitrile and centrifugation at 16000 g for 20 minutes. The supernatant was taken for a LC-MS/MS analysis. The chromatographic column: Waters XSelect HSS T3; the flow rate: 500 μL/min; the eluent: A, water (0.1% formic acid); B, acetonitrile (0.1% formic acid); the gradient elution: 0-1.5 min, 5% B, 1.5-9 min, 5%-80% B, 9-12 min, 80%-100% B, 12-14 min, 100% B, 14-14.3 min, 100%-5% B, 14.3-15 min, 5% B."}, "[3]": {"experiment": "plasma metabolic stability, all species", "type": "in vitro ADME", "conditions": "human, monkey, canine, rat, and mouse; preliminary test", "method": "as §1, §2"}, "[4]": {"experiment": "liver microsomal metabolic stability, human", "method": "(§3) Hepatic Microsomal Metabolic Stability\n(§4) A13bGa1 was co-incubated with the mouse, rat, canine, monkey and human […] and the incubation medium at a final drug concentration of 1 μM in the incubation system for 60 minutes. Samples were taken and analyzed at time points 0, 15, 30, 45 and 60 minutes during the incubation. The reaction was terminated by adding an amount of acetonitrile solution containing the internal standard. […] The residual percentage, half-life, intrinsic clearance, amplified clearance, hepatic clearance and hepatic extraction ratio were determined. The entire experiment was performed in triplicate. All data calculations were performed by Microsoft Excel software. Peak areas were detected by extracting the ionic spectrum. The in vitro half-life (t1/2) of the parent compound was detected by fitting the natural logarithm of the percentage elimination of the parent compound linearly to time.\n(§5) The in vitro intrinsic clearance (in μL/min/mg protein) was calculated using the following equation: in vitro CLint=kV/N\n(§6) The amplified clearance (in mL/min/kg) was calculated using the following equation: Amplified CLint=kV/N×the amplification factor\n(§7) The hepatic clearance (in mL/min/kg) was calculated using the following equation: The predicted hepatic CLH=(Q×Fu/RB×the amplified CLint)/(Q+Fu/RB×the amplified CLint) • V=the incubation volume per well (0.2 mL); • N=the total amount of protein (mg) • Q=the hepatic blood flow (mL/min/kg) • Fu=the plasma free rate (assumed to be 1) • RB=the whole blood partition coefficient (assumed to be 1)\n(§8) The hepatic uptake rate was calculated using the following equation:\n(§9) The hepatic extraction ratio (ER)=(the predicted hepatic CLH)/Q"}, "[5]": {"experiment": "liver microsomal metabolic stability, monkey", "method": "as §3, §4, §5, §6, §7, §8, §9"}, "[6]": {"experiment": "liver microsomal metabolic stability, canine", "method": "as §3, §4, §5, §6, §7, §8, §9"}, "[7]": {"experiment": "liver microsomal metabolic stability, rat", "method": "as §3, §4, §5, §6, §7, §8, §9"}, "[8]": {"experiment": "liver microsomal metabolic stability, mouse", "method": "as §3, §4, §5, §6, §7, §8, §9"}}, "data": [{"smiles": "Cc1c(-c2ccc(N3CCc4cccc(C(=O)Nc5nc6ccccc6s5)c4C3)nc2C(=O)OCc2ccc(O[C@@H]3O[C@H](CO)[C@H](O)[C@H](O)[C@H]3O)c([N+](=O)[O-])c2)cnn1CC12CC3CC(CC(C3)C1)C2", "note": "[Compound A13bGa1]", "values": [{"measurement": "killing of the senescent cells, efficiency and selectivity", "setting": "[1]", "value": "highly efficient and selective in killing the senescent cells"}, {"measurement": "metabolised at 2 h, 10 µM", "setting": "[2]; 10 μM prodrug, read-out: The peak area after normalisation at minute 120, oxidative dehydrogenation metabolite", "value": 0.04, "unit": "%"}, {"measurement": "remaining at 2 h, 10 µM", "setting": "[2]; 10 μM, read-out: The peak area after normalisation at minute 120, initial drug", "value": 100, "unit": "%"}, {"measurement": "stability in the plasma", "setting": "[3]", "value": "highly stable"}, {"measurement": "The hepatic extraction ratio (E)", "setting": "[4]", "value": 0.86}, {"measurement": "The predicted intrinsic hepatic clearance Clint", "setting": "[4]; Fu and RB assumed to be 1", "value": 17.90, "unit": "mL/min/kg"}, {"measurement": "CLint scaled at 1 h, 1 µM", "setting": "[4]; microsomes", "value": 132, "unit": "mL/min/kg"}, {"measurement": "half-life at 1 h, 1 µM", "setting": "[4]; microsomes", "value": 13.1, "unit": "min"}, {"measurement": "microsomal CLint at 1 h, 1 µM", "setting": "[4]; microsomes", "value": 106, "unit": "µL/min/mg"}, {"measurement": "The hepatic extraction ratio (E)", "setting": "[5]", "value": 0.69}, {"measurement": "The intrinsic clearance in vitro Clint", "setting": "[5]; 1 μM, 60 min", "value": 65.35, "unit": "μL/min/mg protein"}, {"measurement": "The predicted intrinsic hepatic clearance Clint", "setting": "[5]; Fu and RB assumed to be 1", "value": 30.18, "unit": "mL/min/kg"}, {"measurement": "CLint scaled at 1 µM", "setting": "[5]; microsomes", "value": 98, "unit": "mL/min/kg"}, {"measurement": "half-life at 1 h, 1 µM", "setting": "[5]; microsomes", "value": 21.2, "unit": "min"}, {"measurement": "The hepatic extraction ratio (E)", "setting": "[6]; canine", "value": 0.70}, {"measurement": "The intrinsic clearance in vitro Clint", "setting": "[6]; canine, 1 μM, 60 min", "value": 29.31, "unit": "μL/min/mg protein"}, {"measurement": "The predicted intrinsic hepatic clearance Clint", "setting": "[6]; canine, Fu and RB assumed to be 1", "value": 21.72, "unit": "mL/min/kg"}, {"measurement": "CLint scaled at 1 µM", "setting": "[6]; dog, microsomes", "value": 73.1, "unit": "mL/min/kg"}, {"measurement": "half-life at 1 h, 1 µM", "setting": "[6]; dog, microsomes", "value": 47.3, "unit": "min"}, {"measurement": "The hepatic extraction ratio (E)", "setting": "[7]", "value": 0.34}, {"measurement": "The intrinsic clearance in vitro Clint", "setting": "[7]; 1 μM, 60 min", "value": 15.81, "unit": "μL/min/mg protein"}, {"measurement": "The predicted intrinsic hepatic clearance Clint", "setting": "[7]; Fu and RB assumed to be 1", "value": 18.72, "unit": "mL/min/kg"}, {"measurement": "CLint scaled at 1 µM", "setting": "[7]; microsomes", "value": 28.3, "unit": "mL/min/kg"}, {"measurement": "half-life at 1 h, 1 µM", "setting": "[7]; microsomes", "value": 87.7, "unit": "min"}, {"measurement": "The hepatic extraction ratio (E)", "setting": "[8]", "value": 0.40}, {"measurement": "The intrinsic clearance in vitro Clint", "setting": "[8]; 1 μM, 60 min", "value": 13.79, "unit": "μL/min/mg protein"}, {"measurement": "The predicted intrinsic hepatic clearance Clint", "setting": "[8]; Fu and RB assumed to be 1", "value": 36.24, "unit": "mL/min/kg"}, {"measurement": "CLint scaled at 1 µM", "setting": "[8]; microsomes", "value": 60.7, "unit": "mL/min/kg"}, {"measurement": "half-life at 1 h, 1 µM", "setting": "[8]; microsomes", "value": 101, "unit": "min"}]}]}
